The target of data set [1] is Acetylcholinesterase (Electrophorus electricus) (UniProt O42275). Description: (§1) Inhibition of electric eel AChE using acetylthiocholine iodide as substrate pretreated for 15 mins followed by substrate addition and measured after 60 mins by Ellman's method. In general terms: In Ellman's method for cholinesterases, released thiocholine reacts with DTNB.
The test system of a further data set is RAW264.7. The experiment in a line: Antiinflammatory activity in mouse RAW264.7 cells assessed as inhibition of LPS/IFNgamma-induced NO production by measuring NO level preincubated for 2 hrs and followed by LPS/IFNgamma addition and measured after 24 hrs by Griess assay. The class given is functional, cell-based. In general terms: The Griess reaction detects nitrite, a stable product of nitric oxide.

The next data set has as its target Acetylcholinesterase (Electrophorus electricus, UniProt O42275). The description is as §1.
Data set [2] deals with PC-12. Description: Neuroprotective activity against TBHP-induced cellular damage in rat PC12 cells assessed as cell viability at 10 uM pretreated for 1 hr followed by TBHP addition and measured after 3 hrs by CCK8 assay (reference value: 27.3%). The format is functional. As to conditions: for viability at 10 µM: read-out: Activity.
Data set [3] has as its target Acetylcholinesterase (Electrophorus electricus) (UniProt O42275). The experiment in a line: Inhibition of electric eel AChE at 12.5 uM using acetylthiocholine iodide as substrate pretreated for 15 mins followed by substrate addition and measured after 60 mins by Ellman's method relative to control.
The test system of data set [4] is PC-12. Description: Toxicity in TBHP treated rat PC12 cells assessed as reduction cell viability at 10 uM pretreated for 1 hr followed by TBHP addition and measured after 3 hrs by CCK8 assay. The class given is cell-based. The following applies: pc-12, 3 h. A general note: Formazan colour is commonly taken as a measure of viable cells.

Consider ten compounds from ChEMBL document CHEMBL4346751, “Comparative analysis of stilbene and benzofuran neolignan derivatives as acetylcholinesterase inhibitors with neuroprotective and anti-inflammatory activities” (Bioorg Med Chem Lett, 2019).

The source made the active and inactive calls. The rule behind the calls is not given here. Where only a bound is given, the exact number is not on record here.

Acetylcholinesterase, sequence (O42275 whole entry): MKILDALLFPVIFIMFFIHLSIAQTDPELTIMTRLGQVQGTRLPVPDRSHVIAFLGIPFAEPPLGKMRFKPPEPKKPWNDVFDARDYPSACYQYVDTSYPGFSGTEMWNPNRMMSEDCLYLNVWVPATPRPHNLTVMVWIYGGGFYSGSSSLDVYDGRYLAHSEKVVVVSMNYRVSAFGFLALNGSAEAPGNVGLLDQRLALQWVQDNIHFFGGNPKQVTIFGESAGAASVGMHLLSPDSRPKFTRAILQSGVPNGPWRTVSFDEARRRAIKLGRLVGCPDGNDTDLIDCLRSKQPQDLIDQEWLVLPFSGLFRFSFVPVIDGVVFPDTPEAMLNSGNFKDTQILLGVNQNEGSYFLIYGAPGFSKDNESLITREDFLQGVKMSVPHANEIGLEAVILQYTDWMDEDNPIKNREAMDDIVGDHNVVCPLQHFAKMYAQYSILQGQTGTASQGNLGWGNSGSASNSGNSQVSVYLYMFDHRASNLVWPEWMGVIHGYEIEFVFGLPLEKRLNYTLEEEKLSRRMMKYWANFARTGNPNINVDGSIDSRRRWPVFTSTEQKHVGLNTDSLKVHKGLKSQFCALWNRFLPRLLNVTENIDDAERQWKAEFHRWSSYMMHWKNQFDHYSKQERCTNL
Acetylcholinesterase (Electrophorus electricus), sequence (O42275 24-633 limits assumed): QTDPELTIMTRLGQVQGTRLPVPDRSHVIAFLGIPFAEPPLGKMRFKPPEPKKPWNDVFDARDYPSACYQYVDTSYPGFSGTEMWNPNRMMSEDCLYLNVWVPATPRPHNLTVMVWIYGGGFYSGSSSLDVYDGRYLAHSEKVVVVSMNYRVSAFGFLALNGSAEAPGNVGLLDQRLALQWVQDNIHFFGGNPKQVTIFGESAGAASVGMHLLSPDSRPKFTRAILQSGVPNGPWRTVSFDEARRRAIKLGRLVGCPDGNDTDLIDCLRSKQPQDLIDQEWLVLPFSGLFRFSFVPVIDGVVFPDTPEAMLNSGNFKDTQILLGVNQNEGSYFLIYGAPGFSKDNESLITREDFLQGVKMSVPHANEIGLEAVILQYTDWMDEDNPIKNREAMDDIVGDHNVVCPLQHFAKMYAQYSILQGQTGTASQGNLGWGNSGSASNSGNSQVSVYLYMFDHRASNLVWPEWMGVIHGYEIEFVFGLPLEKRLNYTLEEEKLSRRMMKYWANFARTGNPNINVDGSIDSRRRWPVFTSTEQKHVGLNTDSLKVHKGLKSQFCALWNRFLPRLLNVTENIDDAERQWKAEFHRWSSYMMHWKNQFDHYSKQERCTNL

Broadly, the inhibition is the change of the read-out against control, counted positive when it falls. As usually defined, the IC50 is the point on the concentration scale where inhibition reaches its midpoint. Turning to `COC(=O)CCc1cc(OC)c2c(c1)[C@H](C(=O)OC)[C@@H](c1ccc(O)c(OC)c1)O2`, the inhibition result in data set [1] is “inactive”. For the same compound, in the data set with RAW264.7, the IC50 turned out to be 231 µM and the inhibition entry is “Dose-dependent effect”.
Turning to `COc1cc(/C=C/C(=O)OCCCc2cc(OC)c3c(c2)C(COC(=O)/C=C/c2ccc(O)c(OC)c2)C(c2ccc(O)c(OC)c2)O3)ccc1O` (stereo unspecified), the inhibition result (in data set [1]; in the data set with RAW264.7) was “Dose-dependent effect” throughout. Also, the 50% inhibitory concentration (IC50) at Acetylcholinesterase came out at 29.8 µM; in the data set on RAW264.7, 9.4 µM. The viability at 10 µM with PC-12 [2] came to 72.7%.
As to `COc1cc(/C=C/c2ccc3c(c2)[C@H](c2cc(OC)cc(OC)c2)[C@@H](c2ccc(O)cc2)O3)cc(OC)c1`, the inhibition in data set [3] was above 50%; with RAW264.7, “Dose-dependent effect”. The IC50 at Acetylcholinesterase came out at 11.7 µM; in the data set on RAW264.7 it was 24 µM. The viability at 10 µM in the data set on PC-12 [2] was determined as 75.5%.
On the same counts, the results for `Oc1ccc([C@H]2Oc3ccc(/C=C/c4cc(O)cc(O)c4)cc3[C@@H]2c2cc(O)cc(O)c2)cc1` are above 50%, “Dose-dependent effect”, 4.3 µM, 80.2 µM and 60.2%.
As for `COC(=O)/C=C/c1cc(OC)c2c(c1)[C@H](C(=O)OC)[C@@H](c1ccc(O)c(OC)c1)O2` (racemic), in data set [1], the inhibition result is “inactive”. Moreover, in the data set with RAW264.7, the IC50 was determined as 51.4 µM and the inhibition result is “Dose-dependent effect”.
Take `COc1cc([C@H]2Oc3c(OC)cc(CCCO)cc3[C@@H]2CO)ccc1O` [DIHYDRODEHYDRODICONIFERY ALCOHOL]: in data set [1], the inhibition result was “inactive”. Further, in the data set on RAW264.7, the half-inhibitory concentration (IC50) was 60.4 µM and the inhibition entry is “Dose-dependent effect”.
As to `COc1cc([C@@H]2Oc3c(OC)cc(/C=C/C(=O)NCCc4ccc(O)cc4)cc3[C@H]2C(=O)NCCc2ccc(O)cc2)ccc1O` [GROSSAMIDE], the inhibition entry (in data set [1]; in the data set on RAW264.7) was “Dose-dependent effect” each time. Further, the IC50 on Acetylcholinesterase is 39.3 µM; in the data set on RAW264.7, 24.7 µM. In the data set with PC-12 [2], the outcome was inactive. Moreover, in the data set with PC-12 [4], the Activity result is on record as “Toxic”.
For the compound `COc1cc(/C=C/c2ccc(O)cc2)cc(OC)c1` [PTEROSTILBENE], in the data set with RAW264.7, the IC50 turned out to be 30 µM and the inhibition result is “Dose-dependent effect”.
Regarding `O=c1c(O)c(-c2ccc(O)c(O)c2)oc2cc(O)cc(O)c12` [QUERCETIN], the viability at 10 µM with PC-12 [2] was determined as 65.1%.
As to `Oc1ccc(/C=C/c2cc(O)cc(O)c2)cc1` [RESVERATROL], the viability at 10 µM in the data set with PC-12 [2] stood at 57.5%. In the data set with RAW264.7, the half-maximal inhibitory concentration (IC50) is 44.1 µM and the inhibition entry was “Dose-dependent effect”.
